Laboratory results from patent publication US7407940B2, “Antimicrobial hexapeptides” (Helix BioMedix Inc., priority 2005, dated 2008).
Where a SMILES comes first, the peptide text is derived from it. Where no end group is shown, it is not given here. [ ]: non-standard residue; d: D form. The star is where a group is joined. Nonanoyl = CCCCCCCCC(=O)*; Octanoyl = CCCCCCCC(=O)*; Cap = not defined here

Experiments:
Format in all cases: cell-based
Escherichia coli UB1005 = assay: MIC, broth microdilution, E. coli; set-up: unit not given here
Protocol: (§1) MICs (minimal inhibitory concentrations) were determined for the hexapeptides of interest using a slightly modified version of the NCCLS (National Committee for Clinical Laboratory Standards) broth microdilution method as described previously (Steinberg et al., AAC 41: 1738, 1997). Briefly, antimicrobial agents were prepared as 10× concentrates in the most appropriate solvent. For the hexapeptide, 0.01% acetic acid containing 0.2% bovine serum albumin as a carrier protein was used. Inocula were prepared by resuspending colonies from a BAP (please spell out this term) in medium and adjusting the suspension to match that of a 0.5 McFarland standard. The suspension was diluted into fresh medium (as recommended by NCCLS for the organism) to give 2×10^5 to 7×10^5 CFU/ml for bacteria or 2×10^3 to 7×10^3 CFU/ml for Candida. After dispensing 100 μl aliquots of the microbial suspension into each well of a 96-well polypropylene microtiter plate, 11 μl of test compound was added. The MIC was defined as the lowest concentration of drug which prevented visible turbidity after 16 to 20 hours (bacteria) or 46 to 50 hours (Candida) at 35° C.

[1] = tested on: Salmonella typhimurium 14028S; assay: MIC, broth microdilution, S. typhimurium; set-up: unit not given here; conditions: for Anti-microbial activity (MIC): S. typhimurium 14028S; for MIC, lipid length SAR: S.typhimurium
Protocol: as §1

P. acnes = assay: Activity against extended panel of P. acnes; set-up: unit not given here
Description: A very promising application for short bioactive peptides is for dermatological indications such as acne.

Pseudomonas aeruginosa = tested on: Pseudomonas aeruginosa; set-up: MIC, lipid length SAR: unit not given here; conditions: for MIC, lipid length SAR: P.aeruginosa
Protocol: as §1

Candida albicans = tested on: Candida albicans
Protocol: as §1

Row | Molecule | Anti-microbial activity (MIC) (Escherichia coli UB1005) | Anti-microbial activity (MIC) [1] | further results
1 | FAKLAK-NH2 [SEQ ID NO: 20] | >128 | >128 | –
2 | KLAKLL-NH2 [SEQ ID NO: 27] | >128 | >128 | –
3 | RKTWPW-NH2 [SEQ ID NO: 15] | >128 | >128 | –
4 | Oct-kfkwpw-HN2 (Octanoyl-[dK][dF][dK][dW][dP][dW]-NH2; SMILES CCCCCCCC(=O)N[C@H](CCCCN)C(=O)N[C@H](Cc1ccccc1)C(=O)N[C@H](CCCCN)C(=O)N[C@H](Cc1c[nH]c2ccccc12)C(=O)N1CCC[C@@H]1C(=O)N[C@H](Cc1c[nH]c2ccccc12)C(N)=O) [SEQ ID NO: 81] | – | – | Activity (MIC) against P. acnes (P. acnes; ATCC 6921): 4; Activity (MIC) against P. acnes (P. acnes; ATCC 6922): 8; Activity (MIC) against P. acnes (P. acnes; ATCC 6923): 8; Activity (MIC) against P. acnes (P. acnes; ATCC 11828): 8; Activity (MIC) against P. acnes (P. acnes; ATCC 12930): 2; Activity (MIC) against P. acnes (P. acnes; ATCC 25746): 0.25; Activity (MIC) against P. acnes (P. acnes; ATCC 29399): 8; Activity (MIC) against P. acnes (P. acnes; ATCC 33179): 16; Activity (MIC) against P. acnes (P. acnes; ATCC 49929): 0.125; Activity (MIC) against P. acnes (P. acnes; ATCC 51277): 8
5 | FALKKL-NH2 [SEQ ID NO: 14] | >128 | >128 | –
6 | KFVWPW-NH2 [SEQ ID NO: 32] | >128 | >128 | –
7 | KWKKLA-NH2 [SEQ ID NO: 22] | >128 | >128 | –
8 | Cap-KFKWPW-NH2 (not fully specified; printed as Cap-KFKWPW-NH2; reading uncertain) [SEQ ID NO: 71] | – | – | MIC, lipid length SAR (Pseudomonas aeruginosa): >128; MIC, lipid length SAR [1]: 128
9 | H-RWRWPW-NH2 [compound 4] | – | – | Minimal Inhibitory Concentrations (Mics) (Candida albicans): 64-128 Mg/Ml
10 | KWKKPV-NH2 [SEQ ID NO: 17] | >128 | >128 | –
11 | Non-KFKWPW-NH2 (Nonanoyl-KFKWPW-NH2; SMILES CCCCCCCCC(=O)N[C@@H](CCCCN)C(=O)N[C@@H](Cc1ccccc1)C(=O)N[C@@H](CCCCN)C(=O)N[C@@H](Cc1c[nH]c2ccccc12)C(=O)N1CCC[C@H]1C(=O)N[C@@H](Cc1c[nH]c2ccccc12)C(N)=O) [SEQ ID NO: 70] | – | – | MIC, lipid length SAR (Pseudomonas aeruginosa): 32-64; MIC, lipid length SAR [1]: 16
12 | FKFKPV-NH2 [SEQ ID NO: 12] | >128 | >128 | –
13 | KWKVFK-NH2 [SEQ ID NO: 24] | >128 | >128 | –
14 | FKLAPW-NH2 [SEQ ID NO: 16] | >128 | >128 | –
15 | FRHFRW-NH2 [SEQ ID NO: 18] | >128 | >128 | –
16 | KPVWPW-NH2 [SEQ ID NO: 30] | >128 | >128 | –
17 | VAKLAK-NH2 [SEQ ID NO: 19] | >128 | >128 | –
18 | KWKFKF-NH2 [SEQ ID NO: 23] | >128 | >128 | –
19 | CCCCCCCCC(=O)N[C@@H](CCCCN)C(=O)N[C@@H](Cc1ccccc1)C(=O)N[C@@H](CCCCN)C(=O)N[C@@H](Cc1c[nH]c2ccccc12)C(=O)N1CCC[C@H]1C(=O)N[C@@H](Cc1c[nH]c2ccccc12)C(N)=O [compound 70] (Nonanoyl-KFKWPW-NH2) | – | – | Minimal Inhibitory Concentrations (Mics) (Pseudomonas aeruginosa): 32-64 Mg/Ml
